Results as given in paper PMC4467398, “Preclinical antitumor activity of ST7612AA1: a new oral thiol-based histone deacetylase (HDAC) inhibitor” (Oncotarget, 2014).

Test system: DOHH2 and TMD8 DLBCL cells
Assay: Gene expression profiling (HumanHT-12 v4 BeadChip, limma), ST7612AA1 300 nM 8 hrs vs DMSO
Type: cell-based, human
Details: 300 nM 8 hrs vs DMSO

CC(=O)SCCCCC[C@H](NC(=O)[C@H]1CCC(=O)N1)C(=O)Nc1ccccc1 [ST7612AA1]
log ratio LOC285359 (ILMN_1675878): 6.44E-01
log ratio LOC388588 (probe ILMN_1749834): 7.07E-01
log ratio LOC389816 (ILMN_2249018): 6.55E-01
log ratio LOC643384 (ILMN_3219806): -1.06E+00
log ratio LOC644563 (ILMN_3207122): -1.31E+00
log ratio LOC644988 (ILMN_3201485): 6.07E-01
log ratio LOC646463 (ILMN_1721651): 6.71E-01
log ratio LOC646786 (ILMN_1654915): 6.50E-01
log ratio LOC646817 (ILMN_1702585): -1.11E+00
log ratio LOC647784 (ILMN_1674710): 6.05E-01
log ratio LOC650215 (ILMN_1743711): -8.77E-01
log ratio LOC653566 (ILMN_1780382): -6.21E-01
log ratio LOC654191 (probe ILMN_1762308): 7.84E-01
log ratio LOC727935 (probe ILMN_1691616): 7.14E-01
log ratio LOC728014 (probe ILMN_1711699): 8.58E-01
log ratio LOC728492 (ILMN_1655444): -8.05E-01
log ratio LOC728602 (ILMN_3305993): 6.70E-01
log ratio LOC728650 (ILMN_3234615): -8.83E-01
log ratio LOC729495 (probe ILMN_3297510): 7.45E-01
log ratio LOC730101 (probe ILMN_3305735): 7.41E-01
log ratio LOC730415 (probe ILMN_3228688): 6.95E-01
log ratio LOC731049 (ILMN_1808591): 6.61E-01
log ratio LOC731314 (probe ILMN_1785756): 8.31E-01
log ratio LOC100128163 (probe ILMN_3182893): 7.83E-01
log ratio LOC100130919 (ILMN_3176090): -8.14E-01
log ratio LOC100131727 (probe ILMN_3292990): 7.73E-01
log ratio LOC100131735 (ILMN_3208233): -5.90E-01
log ratio LOC100132715 (ILMN_3211935): -5.93E-01
log ratio LOC100133583 (probe ILMN_3214389): 8.94E-01
log ratio LOC100133678 (probe ILMN_3249667): 8.11E-01
log ratio LOC100134361 (probe ILMN_3241081): 8.59E-01
log ratio LPCAT3 (ILMN_1805225): 6.30E-01
log ratio LRCH4 (probe ILMN_2157075): 8.54E-01
log ratio LRP8 (ILMN_1677765): -8.68E-01
log ratio LRRC1 (probe ILMN_1755383): 7.83E-01
log ratio LRRC16 (ILMN_1736730): 5.94E-01
log ratio LRRC32 (ILMN_2129161): 6.30E-01
log ratio LRRC33 (ILMN_1746148): -1.42E+00
log ratio LRRFIP2 (ILMN_1707156): 6.31E-01
log ratio LRRK1 (ILMN_1696004): -8.42E-01
log ratio LTA4H (probe ILMN_1690342): 7.50E-01
log ratio LUZP1 (ILMN_1714159): 6.25E-01
log ratio LYAR (ILMN_1764362): -8.62E-01
log ratio LYAR (ILMN_2221564): -9.24E-01
log ratio LYRM5 (probe ILMN_1744534): 7.90E-01
log ratio LYRM7 (ILMN_3238623): 6.34E-01
log ratio LYSMD4 (probe ILMN_2159859): 6.95E-01
log ratio MAD2L2 (ILMN_1669550): 6.43E-01
log ratio MAK16 (ILMN_1777139): -7.86E-01
log ratio MAP1LC3B (probe ILMN_1703244): 7.73E-01
log ratio MAP1S (ILMN_1796336): 6.11E-01
log ratio MAP2K1 (probe ILMN_1694240): 7.15E-01
log ratio MAPKAPK2 (ILMN_1774844): 6.77E-01
log ratio MAPRE2 (probe ILMN_1695276): 7.72E-01
log ratio MARCKSL1 (probe ILMN_1714433): 8.47E-01
log ratio MAST3 (probe ILMN_1738749): 7.21E-01
log ratio MCL1 (ILMN_1756806): 6.49E-01
log ratio MCRS1 (ILMN_1784227): -9.30E-01
log ratio MED24 (ILMN_2388272): -6.00E-01
log ratio MEPCE (ILMN_2180827): -8.77E-01
log ratio METTL1 (ILMN_1815190): -9.82E-01
log ratio METTL1 (ILMN_3306997): -9.97E-01
log ratio MEX3C (ILMN_1658182): -6.16E-01
log ratio MGC3731 (ILMN_1759991): -9.43E-01
log ratio MGEA5 (ILMN_1686750): 6.73E-01
log ratio MINA (ILMN_1746025): -5.93E-01
log ratio MNS1 (probe ILMN_2157240): 7.07E-01
log ratio MPDU1 (ILMN_1655654): -1.02E+00
log ratio MPDU1 (ILMN_2070815): -8.19E-01
log ratio MRLC2 (ILMN_1654016): 5.90E-01
log ratio MRPL3 (ILMN_1713143): -8.76E-01
log ratio MRPL20 (ILMN_2189424): -8.46E-01
log ratio MRPL24 (ILMN_2398995): -6.00E-01
log ratio MRPL35 (ILMN_2341952): -5.96E-01
log ratio MRPL54 (ILMN_1658486): -9.87E-01
log ratio MRPS26 (ILMN_1676026): -7.88E-01
log ratio MRPS30 (ILMN_1726743): -5.98E-01
log ratio MRPS35 (ILMN_2189993): -8.24E-01
log ratio MRTO4 (ILMN_1689800): -9.19E-01
log ratio MTE (probe ILMN_2136089): 8.56E-01
log ratio MTHFD1L (ILMN_1772521): -9.66E-01
log ratio MTHFS (ILMN_1772302): -1.28E+00
log ratio MTP18 (ILMN_2355665): -9.91E-01
log ratio MTX3 (ILMN_1679071): -6.10E-01
log ratio MYB (ILMN_1711894): -9.88E-01
log ratio MYBL1 (probe ILMN_3241046): 7.69E-01
log ratio MYD88 (ILMN_1738523): -1.17E+00
log ratio MYH9 (ILMN_1722872): 6.24E-01
log ratio MYH10 (ILMN_1815154): 5.97E-01
log ratio N6AMT2 (ILMN_1730260): -9.90E-01
log ratio NARG1 (ILMN_1669142): -6.10E-01
log ratio NBN (ILMN_1734833): -9.40E-01
log ratio NECAP2 (ILMN_1749011): 6.12E-01
log ratio NEK2 (ILMN_2051373): 6.21E-01
log ratio NGDN (ILMN_1690049): -6.03E-01
log ratio NIP7 (ILMN_1704305): -1.05E+00
log ratio NLGN2 (ILMN_1764158): 6.16E-01
log ratio NMI (ILMN_1739541): -9.86E-01
log ratio NOL6 (ILMN_2320250): -8.75E-01
log ratio NOL11 (ILMN_1688971): -7.88E-01
log ratio NOP16 (ILMN_3247723): -1.13E+00
log ratio NOSIP (probe ILMN_1759436): 7.06E-01
log ratio NPC2 (probe ILMN_1716678): 8.44E-01
log ratio NPHP3 (ILMN_1730539): 6.73E-01
log ratio NPL (probe ILMN_1782070): 7.76E-01
log ratio NPL (probe ILMN_2149494): 8.88E-01
log ratio NQO2 (probe ILMN_1712918): 8.69E-01
log ratio NSMAF (ILMN_1716596): -1.37E+00
log ratio NUB1 (probe ILMN_1665291): 7.20E-01
log ratio NUCKS1 (ILMN_3251404): -5.98E-01
log ratio NUDT6 (ILMN_2366972): 5.92E-01
log ratio NUDT15 (ILMN_1751403): -5.98E-01
log ratio NUMB (probe ILMN_2331266): 7.27E-01
log ratio NUP188 (ILMN_1715416): -5.95E-01
log ratio NXF1 (probe ILMN_1705783): 8.80E-01
log ratio NXF1 (probe ILMN_2358652): 7.18E-01
log ratio NXT1 (ILMN_1760280): -8.51E-01
log ratio OAS2 (ILMN_2248970): -1.29E+00
log ratio OSBPL2 (ILMN_1656482): 6.07E-01
log ratio P704P (probe ILMN_1793950): 6.85E-01
log ratio PAG1 (ILMN_2055156): 6.63E-01
log ratio PAQR3 (ILMN_1716071): 6.81E-01
log ratio PAQR8 (probe ILMN_1694589): 7.20E-01
log ratio PCMT1 (ILMN_1671621): 6.27E-01
log ratio PCTP (ILMN_1802257): 6.55E-01
log ratio PCYOX1 (probe ILMN_1679725): 7.89E-01
log ratio PDCD2 (ILMN_1758915): -8.70E-01
log ratio PDXK (probe ILMN_1672504): 8.94E-01
log ratio PECI (probe ILMN_2384536): 8.25E-01
log ratio PEMT (ILMN_1745806): -5.93E-01
log ratio PEX16 (probe ILMN_1745655): 7.84E-01
log ratio PFKFB3 (ILMN_2186061): 6.71E-01
log ratio PHF5A (ILMN_2112402): -8.44E-01
log ratio PHF15 (ILMN_1795285): -8.13E-01
log ratio PHF19 (ILMN_1713249): -1.52E+00
log ratio PHF19 (ILMN_1745420): -1.01E+00
log ratio PIGW (ILMN_1743397): -1.03E+00
log ratio PIM2 (probe ILMN_1748283): 7.43E-01
log ratio PITX1 (ILMN_1674386): -8.58E-01
log ratio PKIA (ILMN_1762262): 6.12E-01
log ratio PKIA (probe ILMN_2337974): 7.37E-01
log ratio PLD3 (probe ILMN_1666976): 8.81E-01
log ratio PLD6 (ILMN_1731518): -1.18E+00
log ratio PLD6 (ILMN_3240586): -1.84E+00
log ratio PLIN2 (ILMN_2138765): 5.92E-01
log ratio PLS1 (ILMN_1759206): 6.43E-01
log ratio PLXNA3 (ILMN_1719972): 6.52E-01
log ratio PMAIP1 (probe ILMN_2098446): 8.50E-01
log ratio PNKD (probe ILMN_1774604): 7.25E-01
